# Test system: male birds Cobb X Cobb chicks
# Test: Floor pen feeding trial of cocci-vaccinated birds with ProAct and enzyme combinations (Example 3)
# Format: in vivo, male broiler chickens (Cobb X Cobb)
# Conditions: Day 42, male Cobb X Cobb broilers
# Protocol: A floor pen trial was conducted using day old male birds Cobb X Cobb chicks. A total of 2,160 were allocated to the study. The experiment consisted of 48 pens of 45 male broiler chickens. Treatments were replicated in eight (8) blocks with six (6) treatments randomized in each. The birds were fed nutritionally-adequate basal diets based on corn/soybean meal and adjusted to the bird age by feeding a starter diet from day 1 to 16 and a grower diet from day 17 to 32 and a finisher diet from day 33 to 42. The 6 treatments were as follows:
# As treatment RONOZYME® enzyme products, supplied by DSM Nutritional Products, Kaiseraugst, Switzerland have been used.
# Ronozyme®AX=80% Ronozyme®WX+20% Ronozyme®A
# Ronozyme® ProAct=pure protease product.
# All birds received Cocci Vac® B on day 1 of age administered nasally in the hatchery except the positive control birds that were given a standard dose of the coccidiostat Salinomcyin of 60 g/ton of feed throughout the study
# At the end of the trial at day 42 the average bird weight (Avg. Wt. Gain) and the average feed consumption (Feed Consump.) were determined and the Feed Conversion Ratio (FRC) was calculated by dividing the feed intake by the weight gain for each treatment
smiles,measurement,setting,value
"CC[C@@H](C(=O)[C@@H](C)[C@@H](O)[C@H](C)[C@@H]1O[C@@H]([C@@H](CC)C(=O)O)CC[C@@H]1C)[C@H]1O[C@]2(C=C[C@@H](O)[C@]3(CC[C@@](C)([C@H]4CC[C@](O)(CC)[C@H](C)O4)O3)O2)[C@H](C)C[C@@H]1C [Salinomcyin 60 g/t, Salinomycin]",Avg. Wt. Gain,average bird weight,2.490 a
same,Feed Consump.,average feed consumption,191.58 a
same,FCR,feed intake divided by weight gain,1.719 days
